Results: PubChem BioAssay (NCI)
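Tested at 5 concentrations; 48 h exposure; 96-well plates; endpoints linearly interpolated, else capped at highest concentration. GI50: concentration for 50% inhibition of growth. At the TGI there is no net growth.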

Tests used:
Assay in all cases: growth of human tumour cells (NCI), 48 h
A498 renal = test system: A498 renal
NCI-H522 lung = test system: NCI-H522 lung
SK-MEL-28 melanoma = test system: SK-MEL-28 melanoma
ACHN renal = test system: ACHN renal
HCT-116 colon = test system: HCT-116 colon
EKVX NSCLC = test system: EKVX NSCLC
SR leukemia = test system: SR leukemia
UACC-62 melanoma = test system: UACC-62 melanoma
CCRF-CEM leukemia = test system: CCRF-CEM leukemia
PC-3 prostate = test system: PC-3 prostate

SMILES: C=C1C(=O)O[C@H]2[C@H]1CC/C(COC(=O)NCc1ccc(Cn3c(=O)sn(CCCCC)c3=O)cc1)=C\CC[C@@]1(C)O[C@@H]21
- GI50 (A498 renal): 2.91 µM
- TGI (A498 renal): 10.1 µM
- GI50 (NCI-H522 lung): 1.59 µM
- TGI (NCI-H522 lung): 3.1 µM
- GI50 (SK-MEL-28 melanoma): 1.85 µM
- TGI (SK-MEL-28 melanoma): 3.47 µM
- GI50 (ACHN renal): 1.68 µM
- TGI (ACHN renal): 3.14 µM
- GI50 (HCT-116 colon): 1.73 µM
- TGI (HCT-116 colon): 3.7 µM
- GI50 (EKVX NSCLC): 1.85 µM
- TGI (EKVX NSCLC): 5.59 µM
- GI50 (SR leukemia): 0.3 µM
- TGI (SR leukemia): 2.18 µM
- GI50 (UACC-62 melanoma): 1.59 µM
- TGI (UACC-62 melanoma): 3.08 µM
- GI50 (CCRF-CEM leukemia): 0.364 µM
- TGI (CCRF-CEM leukemia): 1.67 µM
- GI50 (PC-3 prostate): 1.92 µM
- TGI (PC-3 prostate): 3.8 µM

SMILES: NC(=O)c1cccnc1
- GI50 (A498 renal): > 100 µM
- TGI (A498 renal): > 100 µM
- GI50 (NCI-H522 lung): > 100 µM
- TGI (NCI-H522 lung): > 100 µM
- GI50 (SK-MEL-28 melanoma): > 100 µM
- TGI (SK-MEL-28 melanoma): > 100 µM
- GI50 (ACHN renal): > 100 µM
- TGI (ACHN renal): > 100 µM
- GI50 (HCT-116 colon): > 100 µM
- TGI (HCT-116 colon): > 100 µM
- GI50 (EKVX NSCLC): > 100 µM
- TGI (EKVX NSCLC): > 100 µM
- GI50 (SR leukemia): 59.8 µM
- TGI (SR leukemia): > 100 µM
- GI50 (UACC-62 melanoma): > 100 µM
- TGI (UACC-62 melanoma): > 100 µM
- GI50 (CCRF-CEM leukemia): 5.99 µM
- TGI (CCRF-CEM leukemia): > 100 µM
- GI50 (PC-3 prostate): > 100 µM
- TGI (PC-3 prostate): > 100 µM

SMILES: Clc1ccc(/C=C/c2ccc3ccccc3n2)cc1
- GI50 (A498 renal): 0.306 µM
- TGI (A498 renal): > 100 µM
- GI50 (NCI-H522 lung): 0.255 µM
- TGI (NCI-H522 lung): 0.763 µM
- GI50 (SK-MEL-28 melanoma): 3.18 µM
- TGI (SK-MEL-28 melanoma): > 100 µM
- GI50 (ACHN renal): 4.82 µM
- TGI (ACHN renal): > 100 µM
- GI50 (HCT-116 colon): 0.399 µM
- TGI (HCT-116 colon): > 100 µM
- GI50 (EKVX NSCLC): 2.79 µM
- TGI (EKVX NSCLC): > 100 µM
- GI50 (SR leukemia): 0.443 µM
- TGI (SR leukemia): 4.12 µM
- GI50 (UACC-62 melanoma): 1.47 µM
- TGI (UACC-62 melanoma): > 100 µM
- GI50 (CCRF-CEM leukemia): 0.508 µM
- TGI (CCRF-CEM leukemia): > 100 µM
- GI50 (PC-3 prostate): 1.74 µM
- TGI (PC-3 prostate): > 100 µM

SMILES: c1ccc(-c2nc3n(c2-c2ccc4c(c2)OCO4)CCC3)nc1
- GI50 (A498 renal): 5.76 µM
- TGI (A498 renal): 20.6 µM
- GI50 (NCI-H522 lung): 8.14 µM
- TGI (NCI-H522 lung): > 25 µM
- GI50 (SK-MEL-28 melanoma): 9.29 µM
- TGI (SK-MEL-28 melanoma): > 22.8 µM
- GI50 (ACHN renal): 0.993 µM
- TGI (ACHN renal): > 25 µM
- GI50 (HCT-116 colon): 8.16 µM
- TGI (HCT-116 colon): > 25 µM
- GI50 (EKVX NSCLC): 5.2 µM
- TGI (EKVX NSCLC): > 25 µM
- GI50 (SR leukemia): 9.49 µM
- TGI (SR leukemia): > 25 µM
- GI50 (UACC-62 melanoma): 5.31 µM
- TGI (UACC-62 melanoma): 16.2 µM
- GI50 (CCRF-CEM leukemia): 7.63 µM
- TGI (CCRF-CEM leukemia): > 25 µM
- GI50 (PC-3 prostate): 6.75 µM
- TGI (PC-3 prostate): > 25 µM

SMILES: C=CC(C)(C)n1cc(C2=C(O)C(=O)C(c3cn(C(C)(C)C=C)c4ccccc34)=C(O)C2=O)c2ccccc21
- TGI (A498 renal): 34.5 µM
- TGI (NCI-H522 lung): 13 µM
- TGI (SK-MEL-28 melanoma): 35 µM
- TGI (ACHN renal): 12.9 µM
- TGI (HCT-116 colon): > 33.9 µM
- TGI (EKVX NSCLC): 14 µM
- TGI (SR leukemia): > 45 µM
- TGI (UACC-62 melanoma): 4.33 µM
- TGI (CCRF-CEM leukemia): > 100 µM
- TGI (PC-3 prostate): 7.13 µM

SMILES: COc1cc(OCc2cccc(-c3ccccc3)c2C)cc(OC)c1CN1CCCCC1C(=O)NCCOCCOCCN (stereo not given)
- GI50 (A498 renal): 2.27 µM
- TGI (A498 renal): 11.8 µM
- GI50 (NCI-H522 lung): 1.88 µM
- TGI (NCI-H522 lung): 4.08 µM
- GI50 (SK-MEL-28 melanoma): 1.75 µM
- TGI (SK-MEL-28 melanoma): 3.22 µM
- GI50 (ACHN renal): 3.43 µM
- TGI (ACHN renal): 13 µM
- GI50 (HCT-116 colon): 2.04 µM
- TGI (HCT-116 colon): 4.64 µM
- GI50 (EKVX NSCLC): 3.71 µM
- TGI (EKVX NSCLC): 15.7 µM
- GI50 (SR leukemia): 1.74 µM
- TGI (SR leukemia): 4.24 µM
- GI50 (UACC-62 melanoma): 1.79 µM
- TGI (UACC-62 melanoma): 3.41 µM
- GI50 (CCRF-CEM leukemia): 2.68 µM
- TGI (CCRF-CEM leukemia): 8.9 µM
- GI50 (PC-3 prostate): 2.76 µM
- TGI (PC-3 prostate): 11.6 µM
